Measurements as given in publication PMC11851430, “Workflow for E3 Ligase Ligand Validation for PROTAC Development” (ACS Chemical Biology, 2025).

Tests used:
[1] = biological target: T1, kinase protein levels in MCF-7 cells (Homo sapiens, UniProt A0A0U1RRE5); test: TMT-labeled quantitative proteomics; assay type: cell-based; conditions: protein NBDY; MCF7; 1 µM; set2
T1 construct: endogenous in cells; host or cells: MCF-7
T1 sequence (A0A0U1RRE5 1-68): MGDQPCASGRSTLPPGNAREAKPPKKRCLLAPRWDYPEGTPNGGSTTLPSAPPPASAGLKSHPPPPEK

[2] = biological target: T2, kinase protein levels in MCF-7 cells (Homo sapiens, UniProt P0DPI2); test: TMT-labeled quantitative proteomics; assay type: cell-based; conditions: protein GATD3; MCF7; 1 µM; set2
T2 construct: endogenous in cells; host or cells: MCF-7
T2 sequence (P0DPI2 42-268): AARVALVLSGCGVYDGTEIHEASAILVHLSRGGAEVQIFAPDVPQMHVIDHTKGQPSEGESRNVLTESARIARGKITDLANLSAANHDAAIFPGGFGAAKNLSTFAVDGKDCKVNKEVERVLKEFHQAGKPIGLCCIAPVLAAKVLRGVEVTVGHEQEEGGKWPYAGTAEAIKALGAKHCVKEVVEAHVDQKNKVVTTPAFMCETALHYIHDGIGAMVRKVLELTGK

[3] = test system: kinase expression levels in Jurkat cells; test: Label-free quantitative proteomics of kinase parent inhibitors; assay type: cell-based, human; conditions: 6 h
Method: CO2. After incubation, the BRET signals were measured by a PHERAstar plate reader (BMG Labtech) following the same procedure as intact NanoBRET® measurement. Competitive displacement data were then normalized to controls and were plotted using GraphPad Prism 9 software employing a normalized 3-parameter curve fit with the following equation: […]
The effects of the compounds on cell viability was determined using the CellTiter-Glo® 2.0 Cell Viability Assay (Promega: G9241) following manufacturer’s protocol. Ten µL of Jurkat cells at […]
After equilibration, PROTACs were titrated at various concentrations using an Echo acoustic […]
volume of CellTiter-Glo® 2.0 reagent (10 µL) was added to each well and cells were incubated for 10 minutes at room temperature. Filtered luminescence was measured on a PHERAstar plate reader (BMG Labtech) and data was evaluated using GraphPad Prism 9 software employing a normalized curve it with the following equation: Y=Bottom + (Top-Bottom)/(1+10(LogEC50-X) *HillSlope).
Sample preparation. Jurkat cells (ATCC © HTB-22) were cultured in RPMI (Thermo:
Cells were seeded in 6 well plates (Greiner:
50 µl of SDS Lysis Buffer (2% SDS, 50 mM TRIS pH 8.5, 10 mM TCEP, 40 mM CAA) was added to each sample. Cells were transferred into low binding reaction tubes (Eppendorf: […]
Protein yield was determined by […]

[4] = biological target: full-length AAK1 (Homo sapiens, UniProt Q2M2I8); test: cell-based; design: species or system HEK293T; NanoBRET tracer displacement in permeabilized cells, NanoLuc fusion protein, Tracer K10; conditions: permeabilized cells; read-out: AAK1 permeabilized (IC50±sd)/µM
full-length AAK1, sequence (Q2M2I8 whole entry, the tested form may be a part): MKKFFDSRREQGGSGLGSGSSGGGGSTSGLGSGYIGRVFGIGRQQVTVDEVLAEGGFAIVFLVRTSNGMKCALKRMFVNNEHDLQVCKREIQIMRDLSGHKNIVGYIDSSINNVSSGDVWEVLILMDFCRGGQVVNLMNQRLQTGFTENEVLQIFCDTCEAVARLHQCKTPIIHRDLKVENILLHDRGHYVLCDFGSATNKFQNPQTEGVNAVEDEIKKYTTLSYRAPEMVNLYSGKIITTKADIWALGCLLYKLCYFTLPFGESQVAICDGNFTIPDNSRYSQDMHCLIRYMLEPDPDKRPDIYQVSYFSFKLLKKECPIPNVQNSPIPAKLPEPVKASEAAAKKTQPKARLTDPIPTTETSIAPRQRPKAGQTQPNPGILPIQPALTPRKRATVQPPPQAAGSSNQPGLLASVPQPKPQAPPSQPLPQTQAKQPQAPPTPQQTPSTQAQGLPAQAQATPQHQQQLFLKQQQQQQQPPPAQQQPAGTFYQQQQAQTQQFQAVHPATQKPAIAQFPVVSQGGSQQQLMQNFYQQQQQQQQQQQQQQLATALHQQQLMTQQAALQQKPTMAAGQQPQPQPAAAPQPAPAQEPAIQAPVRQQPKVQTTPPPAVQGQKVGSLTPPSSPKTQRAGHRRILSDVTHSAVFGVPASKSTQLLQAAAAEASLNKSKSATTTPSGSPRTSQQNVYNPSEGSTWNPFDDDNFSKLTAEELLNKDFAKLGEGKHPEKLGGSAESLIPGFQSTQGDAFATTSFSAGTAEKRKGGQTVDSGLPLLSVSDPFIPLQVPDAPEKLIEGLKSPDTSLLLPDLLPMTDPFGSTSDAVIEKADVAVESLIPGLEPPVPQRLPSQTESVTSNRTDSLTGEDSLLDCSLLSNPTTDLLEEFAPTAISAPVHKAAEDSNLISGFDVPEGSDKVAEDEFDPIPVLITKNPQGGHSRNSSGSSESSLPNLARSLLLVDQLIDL

Compound | P.Value (compound/DMSO) [1] | log2FC (compound/DMSO) [1] | P.Value (compound/DMSO) [2] | log2FC (compound/DMSO) [2] | kinases with reduced protein levels ([3]; 0.25 μM) | kinases with reduced protein levels ([3]; 2.5 μM) | IC50 [4]
CC(=O)N[C@H](C(=O)N1C[C@H](O)C[C@H]1C(=O)NCc1ccc(-c2scnc2C)cc1OCCOCCOCCOCCOCCC(=O)N1CCN(c2ccc(Nc3ncc(Cl)c(Nc4ccccc4C(N)=O)n3)cc2)CC1)C(C)(C)C [6-e] | 0.09776 | 0.2849 | 0.4778 | 0.0741 | – | – | –
CC(=O)N[C@H](C(=O)N1C[C@H](O)C[C@H]1C(=O)NCc1ccc(-c2scnc2C)cc1OCCOCCOCCOCCNC(=O)c1cc(Nc2cc(C3CC3)[nH]n2)nc(Nc2ccc(CC#N)cc2)n1)C(C)(C)C [5-b] | 0.05637 | -0.3112 | 0.01692 | -0.3786 | – | – | –
CCOC(=O)c1cc(Nc2cc(C3CC3)[nH]n2)nc(Nc2ccc(CC#N)cc2)n1 [compound 5] | – | – | – | – | reduced protein levels of PLK1 and BUB1 | no additional kinases showed lower protein levels | –
Cc1ncsc1-c1ccc(CNC(=O)[C@@H]2C[C@H](O)CN2C(=O)[C@@H](NC(=O)CCOCCOCCOCCN2CCN(c3cc(Nc4cc(C5CC5)[nH]n4)nc(Nc4ccc(CC#N)cc4)n3)CC2)C(C)(C)C)cc1 [4-a^neg] | – | – | – | – | – | – | 0.04 ± 0.001 µM
